Patent US7201899B2, “Materials and methods for management of hyperacute rejection in human xenotransplantation” (BresaGen Limited, priority 1994, dated 2007)

How the values were obtained:
[1] = tested on: PK-1 and PAE's cells; assay: Antibody staining and FACS analysis of porcine cells; format: binding; conditions: for inhibition of anti-GAL IgM and/or IgG staining of porcine cells by sugar: anti-GAL antibodies pre-incubated with sugar (0.1 M) at 37° C. for 30 min
Protocol: C. Antibody Staining and FACS Analysis • 1) Add 2 ml TED to a 75 cm^2 culture flask containing PK-1 or PAE'S, and incubate at room temperature for 10 min. • 2) Add RPMI plus 10% FCS (5 ml) to neutralize trypsin. • 3) Pellet cells by centrifugation (700 g, 5 min, • 4) Wash cells by resuspension and centrifugation in Hanks Buffer (×2). • 5) Pellet cells by centrifugation (700 g, 5 min, 4° C.). • 6) Resuspend cell pellet in Hanks buffer containing purified anti-GAL antibodies, GAL-depleted serum or GAL-depleted IgG and incubate at 4° C. for 60 min. All antibodies were used undiluted, or diluted 1:2 or 1:4 in Hanks buffer. • 7) Add 1 ml of Hanks Buffer, pellet cells by centrifugation and aspirate off supernatant. • 8) Resuspend pellet in FITC-labelled sheep-anti-human IgG Fab2 or IgM Fab2 (Silenus, Hawthorn, Australia) diluted 1:80 in Hanks buffer. • 9) Incubate for 30 min. at 4° C. • 10) Wash three times with Hanks buffer; resuspend pellet from final wash in 0.5 ml Hanks buffer. • 11) Analyze stained samples using a FACScan II (Becton Dickinson) according to the manufacturer's instructions.
The specificity of the anti-GAL antibody binding to porcine cells was determined by examining the ability of sugars of various structures to inhibit antibody binding. In these competition studies the anti-GAL antibodies were pre-incubated with sugar (0.1 M) at 37° C. for 30 min before adding to the cells.

[2] = tested on: pig RBC; assay: Hemagglutination of pig RBC by human serum: sugar inhibition; format: cell-based; conditions: for Inhibitory Concentration: inhibition of pig RBC hemagglutination by pooled human AB serum; for concentration range inhibiting agglutination (in words): pig RBC agglutination by human serum
Protocol: The methods used to investigate the hemagglutination of pig red blood cells (RBC's) by human serum was adapted from the methods described by Galili, J. Exp. Med. 160: 1579–81 (1984) and Severson, Immunol. 96: 785–789 (1966).
A. Media/Solution Preparation • 1. Human Serum Albumin (HSA) (CSL, Melbourne, Australia) (5 mg/ml) was dissolved in PBS, filter sterilized, and stored at 4° C. • 2. Preparation of sugars: • 1 M stock solutions of sugar were prepared by dissolving the amount indicated in 100 ml of PBS. Sodium azide was added (0.02%) and solutions stored at 4° C.
B. Preparation of Pig RBC'S • 1. Heparinised pig blood (Animal Resources, Clayton, Australia) is centrifuged at 800 RPM for 10 min to pellet the RBC. • 2. The RBC pellet is washed by resuspension in PBS (10 ml) and recentrifugation (repeated 3 times). After the final wash, the RBC pellet is resuspended in 10 ml PBS. • 3. A 0.5% solution of RBC's is prepared by adding 50 ul RBC solution (from step 2, above) to 10 ml PBS containing 0.5 g/100 ml of HSA.
C. Preparation of 96-well Microtitre Plates (Titretek. USA) • 1. Add 25 ul of PBS to each well. • 2. Add 25 ul of pooled human AB serum (CSL, Melbourne, Australia) to column 1 and serially dilute by removing 25 ul from column 1 and adding to column 2, then repeating by sequentially removing and adding 25 ul from and to each well across the plate, finally discarding 25 μl from column 11 and adding no serum to column 12. • 3. Add 25 ul of sugar solution to each row in decreasing concentrations down rows. No sugar solution is added to the final row. • 4. Incubate at 4° C. overnight and then at 37° C. for 30 min. • 5. Add 50 ul of 0.5% pig RBC to each well; vortex and incubate at room temperature for 2 hours. Determine agglutination visually. II. Results

[3] = tested on: pig kidney, heart and liver sections; assay: Immunostaining of pig tissues with anti-GAL antibodies; format: binding; conditions: pig renal cortex sections, proximal tubule brush borders; sugar 0.1 M
Protocol: Pig kidney was fixed in formalin and dehydrated before embedding in Paraplast. Pig heart and liver were fixed in paraformaldehyde-lysine-periodate fixative and snap frozen in O.C.T. embedding compound (10.24% w/w polyvinyl alcohol, 4.26% w/w polyethylene glycol, 85.50% w/w nonreactive ingredients; Tissue Tek®, Miles, Inc., Elkhart, Ind., USA). Four μm-thick sections of pig heart and liver and 2 μm-thick sections of kidney were incubated with purified anti-GAL antibodies (undiluted, 1:2 and 1:4) for 60 min. and then incubated with a fluorescein isothiocyanate (FITC)-conjugated sheep anti-human immunoglobulin F(ab′) fragment. (Silenus Laboratories, Hawthorn, Australia) (1:100) for 30 min. or a peroxidase-conjugated rabbit anti-human IgG (Dakopatts, Glostrup, Denmark) (1:50) for 60 min. Control sections were analyzed for autofluorescence, with the secondary antibody alone, or with the anti-GAL-depleted IgG or normal pig serum as the primary antibody. […] The specificity of the anti-GAL antibodies was tested by pre-incubating sections of pig renal cortex with a variety of sugars, including melibiose, lactose, sucrose and glucose at 0.1 M.

inhibition of anti-GAL antibody binding to pig tissue by sugar [3]	Structure (SMILES)	inhibition of anti-GAL IgM and/or IgG staining of porcine cells by sugar [1]	Inhibitory Concentration [2]	concentration range inhibiting agglutination (in words) [2]	decrease of anti-GAL antibody staining of PAE's (FIG. 1) ([1]; anti-GAL antibody pre-incubated with sugar, versus anti-GAL antibody alone)
	OC[C@H]1O[C@H](OC[C@H]2O[C@H](OC[C@H]3O[C@H](O[C@]4(CO)O[C@H](CO)[C@@H](O)[C@@H]4O)[C@H](O)[C@@H](O)[C@@H]3O)[C@H](O)[C@@H](O)[C@H]2O)[C@H](O)[C@@H](O)[C@H]1O [Stachyose, α-D-gal-[1->6]-α-D-Glc-[1->2]-β-D-Fru]	inhibited	0.002 M	μM to mM range	
not inhibited	OC[C@H]1O[C@@](CO)(O[C@H]2O[C@H](CO)[C@@H](O)[C@H](O)[C@H]2O)[C@@H](O)[C@@H]1O [Sucrose, α-D-Glucopyranosyl β-D-fructofuranoside]		>10^−1M	only inhibitory when very high concentrations were used	
	O=C[C@H](O)[C@@H](O)[C@@H](O)[C@H](O)CO [Galactose, D(+)galactose]	inhibited	0.002 M	μM to mM range	approximately 10 fold less
